In the assay the test system is Alcaligenes sp. KS-85 creatine amidinohydrolase, SEQ ID NO: 2 (recombinant, produced in E. coli). As to the kind of experiment: Km determination of creatine amidinohydrolase from Lineweaver-Burk plots. It counts as biochemical. Conditions: urea formed quantified, 50 mM phosphate buffer pH 7.7, 37° C. As to the method: The measurement of enzyme activity was conducted under the following conditions. 1 U of enzyme activity is defined as the amount which causes formation of 1 μmol of urea per minute.
6.63 g of creatine is dissolved in 500 ml of 50 mM phosphate buffer, pH 7.7.
10 g of .rho.-dimethylaminobenzaldehyde is dissolved in 500 ml ethanol (guaranteed reagent) and then mixed with a mixture of 575 ml deionized water and 75 ml conc. hydrochloric acid.
1) 0.9 ml of Solution 1 is pre-incubated as the substrate at 37° C. for 5 minutes.
2) 0.1 ml enzyme solution (adjusted to about 1-2 U/ml) is mixed with the substrate and allowed to react at 37° C. for 10 minutes.
3) Then, 2 ml of Solution 2 is mixed with the reaction solution.
4) Then, the mixture is allowed to stand at 25° C. for 20 minutes, and the absorbance at 435 nm is determined (OD sample).
5) As the blank, 0.9 ml of Solution 1 is incubated at 37° C. for 10 minutes and then 2 ml of Solution 2 and 0.1 ml enzyme solution are mixed with Solution 1, and the mixture is allowed to stand at 25° C. for 20 minutes, and the absorbance at 435 nm is determined (OD blank).
U/ml=ΔOD×18.06*×dilution degree

Data on one compound can be found in patent publication US5932466A, “Creatine amidinohydrolase gene, a novel recombinant DNA, and a process for producing creatine amidinohydrolase” (Kikkoman Corporation, priority 1994, dated 1999).

SMILES strings stand for the structures.

Consider `CN(CC(=O)O)C(=N)N` [creatine], for which the Km (in general, the substrate concentration at which the rate is half of its maximum) was 13 mM.
